Literature values as cited in US20240400784A1, “Method for Screening Solvent for Extracting Polyvinyl Chloride, Method for Recycling Waste, Recycled Polyvinyl Chloride, and Composition” (LG Chem, Ltd., priority 2021, published 2024).

Details: value in Table 1 of Document #1; swollen PVC and solvent volume based on PVC volume

**Q.** Which PVC swelling ratio does the source give for CCCCCO [1-Pentanol] here?
**A.** The PVC swelling ratio was 1.02.

**Q.** Which PVC swelling ratio does the source give for CCCC(C)=O [2-Pentanone] here?
**A.** Its PVC swelling ratio is 12.69.

**Q.** With CC(=O)CC(C)C [4-Methylpentan-2-one] as the molecule, how does the PVC swelling ratio read?
**A.** Its PVC swelling ratio is 7.06.

**Q.** For c1ccccc1 [Benzene], which PVC swelling ratio is on record?
**A.** Its PVC swelling ratio is 1.07.

**Q.** For C1CCCCC1 [Cyclohexane], which PVC swelling ratio is on record?
**A.** Its PVC swelling ratio is 1.04.

**Q.** For OC1CCCCC1 [Cyclohexanol], which PVC swelling ratio is on record?
**A.** Its PVC swelling ratio is 1.1.

**Q.** Which PVC swelling ratio does the source give for CCOC(C)=O [Ethyl acetate] here?
**A.** Its PVC swelling ratio is 2.38.

**Q.** With Water as the molecule, how does the PVC swelling ratio read?
**A.** Its PVC swelling ratio is 1.
